Key:
[1] = test system: IL1B (Interleukin 1, beta); experiment: In vitro model of induced atopic dermatitis, RT-qPCR: IL1B; format: cell-based, human; conditions: NHEK + Poly(I:C), IL4, IL13, 24 h; 0.28 mM DEXA; control NHEK = 1
Description: (§1) The pharmacological model was described by Castex-Rizzi et al. (Br J Dermatol. 2014. 170 Suppl 1:12-8)
(§2) PCC extracts collected from crushed, dried, standardized Mimosa pudica culture medium W01D15 (with bioconversion) were dissolved/diluted in solution in 40% EtOH at initial concentrations of 75 mg/ml. The compounds were solubilized extemporaneously for viability tests as well as at the appropriate dose in order to measure pharmacological action on the model of induced atopic dermatitis.
(§3) Normal human epidermal keratinocytes (NHEKs) from Lonza. The cells are amplified under standard culture conditions.
(§4) NHEK cells are seeded and cultured in Keratinocyte-SFM culture medium. […]
(§5) Extraction was carried out using RNABle (Eurobio) and the RNeasy Mini Kit from QIAGEN. The total RNAs extracted are assayed on a spectrophotometer (NanoDrop, ND1000, Thermo Scientific) and their qualities analysed on agarose gel.
(§6) Real-time PCR is a precise, sensitive and rapid method that allows the relative quantification of the rate of expression of a target gene relative to that of a ubiquitously expressed reference gene. This technique makes it possible to quantify messenger RNA. […] Incorporation of a fluorophore (SYBR Green) during the hybridization step of exponential amplification allows quantification and real-time monitoring of the amount of neo-formed amplification product. […]

[2] = test system: IL-6 secretion in RAW264.7 cells; experiment: IL6 assay by ELISA in LPS-activated RAW264.7 macrophages; format: cell-based; conditions: Mus musculus, 1 μM dexamethasone 1 h before 0.2 μg/mL LPS, 24 h, read-out: inhibition of IL-6 secretion (% i)
Source text: (§7) In this example, we compare the anti-inflammatory activity of 2 Mimosa pudica extracts (E11 and E13). Extract E11 comes from ethyl acetate extraction of the dried and crushed Mimosa pudica leaves and extract E13 comes from extraction with the same solvent of the crushed materials derived from Mimosa pudica plant cell culture without bioconversion in an Erlenmeyer flask. The 2 extracts were weighed after evaporation of the solvent to dryness. They were taken up in DMSO. To evaluate and compare the anti-inflammatory activity of the 2 extracts in the same concentrations, we have an in vitro pharmacological test which consists in stimulating murine macrophages, RAW264.7 cells, that express on their surface the TLR4 receptor by the bacterial LPS according to (Kang et al. 2002. J Pharmacol Exp Ther. 302:138-144). Several parameters were studied and compared to a reference anti-inflammatory, dexamethasone: • nitrite production by the Griess technique. The nitrite level reflects the level of NO synthesis induced by inducible nitrite oxide synthase (iNOS). • cytokine secretion: interleukin-6 by ELISA • TNF-alpha production by multiplex assay Cell Culture
RAW264.7 cells are mouse macrophages in lineage. […]
(§8) Concentrations are expressed as averages. […]

[3] = test system: DEFB103A (Defensin, beta 103B); experiment: In vitro model of induced atopic dermatitis, RT-qPCR: DEFB103A; format: cell-based, human; conditions: NHEK + Poly(I:C), IL4, IL13, 24 h; 0.28 mM DEXA; control NHEK = 1
Description: as §1, §2, §3, §4, §5, §6

[4] = test system: CCL20 (Chemokine (C-C motif) ligand 20); experiment: In vitro model of induced atopic dermatitis, RT-qPCR: CCL20; format: cell-based, human; conditions: NHEK + Poly(I:C), IL4, IL13, 24 h; 0.28 mM DEXA; control NHEK = 1
Description: as §1, §2, §3, §4, §5, §6

[5] = test system: TSLP (Thymic stromal lymphopoietin); experiment: In vitro model of induced atopic dermatitis, RT-qPCR: TSLP; format: cell-based, human; conditions: NHEK + Poly(I:C), IL4, IL13, 24 h; 0.28 mM DEXA; control NHEK = 1
Description: as §1, §2, §3, §4, §5, §6

[6] = test system: S100A7 (S100 calcium binding protein A7); experiment: In vitro model of induced atopic dermatitis, RT-qPCR: S100A7; format: cell-based, human; conditions: NHEK + Poly(I:C), IL4, IL13, 24 h; 0.28 mM DEXA; control NHEK = 1
Description: as §1, §2, §3, §4, §5, §6

IL8 (Interleukin 8) = experiment: In vitro model of induced atopic dermatitis, RT-qPCR: IL8; format: cell-based, human; conditions: NHEK + Poly(I:C), IL4, IL13, 24 h; 0.28 mM DEXA; control NHEK = 1
Description: as §1, §2, §3, §4, §5, §6

[7] = test system: IFNB1 (Interferon, beta 1, fibroblast); experiment: In vitro model of induced atopic dermatitis, RT-qPCR: IFNB1; format: cell-based, human; conditions: NHEK + Poly(I:C), IL4, IL13, 24 h; 0.28 mM DEXA; control NHEK = 1
Description: as §1, §2, §3, §4, §5, §6

CX3CL1 (Fractalkine) = experiment: In vitro model of induced atopic dermatitis, RT-qPCR: CX3CL1; format: cell-based, human; conditions: NHEK + Poly(I:C), IL4, IL13, 24 h; 0.28 mM DEXA; control NHEK = 1
Description: as §1, §2, §3, §4, §5, §6

[8] = test system: CCL27 (Chemokine (C-C motif) ligand 27); experiment: In vitro model of induced atopic dermatitis, RT-qPCR: CCL27; format: cell-based, human; conditions: NHEK + Poly(I:C), IL4, IL13, 24 h; 0.28 mM DEXA; control NHEK = 1
Description: as §1, §2, §3, §4, §5, §6

[9] = test system: CCL13 (Chemokine (C-C motif) ligand 13); experiment: In vitro model of induced atopic dermatitis, RT-qPCR: CCL13; format: cell-based, human; conditions: NHEK + Poly(I:C), IL4, IL13, 24 h; 0.28 mM DEXA; control NHEK = 1
Description: as §1, §2, §3, §4, §5, §6

[10] = test system: RNASE7 (Ribonuclease, RNase A family, 7); experiment: In vitro model of induced atopic dermatitis, RT-qPCR: RNASE7; format: cell-based, human; conditions: NHEK + Poly(I:C), IL4, IL13, 24 h; 0.28 mM DEXA; control NHEK = 1
Description: as §1, §2, §3, §4, §5, §6

[11] = test system: IL1A (Interleukin 1, alpha); experiment: In vitro model of induced atopic dermatitis, RT-qPCR: IL1A; format: cell-based, human; conditions: NHEK + Poly(I:C), IL4, IL13, 24 h; 0.28 mM DEXA; control NHEK = 1
Description: as §1, §2, §3, §4, §5, §6

[12] = test system: CCL11 (Chemokine (C-C motif) ligand 11); experiment: In vitro model of induced atopic dermatitis, RT-qPCR: CCL11; format: cell-based, human; conditions: NHEK + Poly(I:C), IL4, IL13, 24 h; 0.28 mM DEXA; control NHEK = 1
Description: as §1, §2, §3, §4, §5, §6

[13] = test system: TLR3 (Toll-like receptor 3); experiment: In vitro model of induced atopic dermatitis, RT-qPCR: TLR3; format: cell-based, human; conditions: NHEK + Poly(I:C), IL4, IL13, 24 h; 0.28 mM DEXA; control NHEK = 1
Description: as §1, §2, §3, §4, §5, §6

[14] = test system: IL4R (Interleukin 4 receptor); experiment: In vitro model of induced atopic dermatitis, RT-qPCR: IL4R; format: cell-based, human; conditions: NHEK + Poly(I:C), IL4, IL13, 24 h; 0.28 mM DEXA; control NHEK = 1
Description: as §1, §2, §3, §4, §5, §6

[15] = test system: TNF-alpha production in RAW264.7 cells; experiment: TNF-alpha Luminex assay in LPS-activated RAW264.7 macrophages; format: cell-based; conditions: Mus musculus, 1 μM dexamethasone 1 h before 0.2 μg/mL LPS, 24 h, read-out: inhibition of TNF-alpha production (% i)
Source text: as §7, with “Several parameters were studied and compared to a reference anti-inflammatory, dexamethasone: • nitrite production by the Griess technique. The nitrite level reflects the level of NO synthesis induced by inducible nitrite oxide synthase (iNOS). • cytokine secretion: interleukin-6 by ELISA • TNF-alpha production by multiplex assay Cell Culture” left out
Simultaneous assay of TNF-alpha in the cell supernatants was performed using the Luminex xMAP (multi-analyte profiling) technology which is based on the principles of flow cytometry and ELISA in a 96-well microplate. The microbeads used as substrate incorporate two fluorochromes in a precise ratio, which gives them an identifying colour code (different fluorescences). […] The second laser, green, (λ=532 nm) excites the reporter fluorochrome attached to the specific detection antibody in order to quantify the cytokine. […]
as §8

[16] = test system: nitrite production (NO synthesis induced by iNOS) in RAW264.7 cells; experiment: Nitrite assay (Griess) in LPS-activated RAW264.7 macrophages; format: cell-based; conditions: Mus musculus, 1 μM dexamethasone 1 h before 0.2 μg/mL LPS, 24 h, read-out: inhibition of nitrite production (% i)
Source text: as §7, with “The nitrite level reflects the level of NO synthesis induced by inducible nitrite oxide synthase (iNOS). • cytokine secretion: interleukin-6 by ELISA • TNF-alpha production by multiplex assay Cell Culture” left out
The level of NO synthesis is evaluated in fresh or frozen (−80° C.) cell supernatants, without affecting the assay. The principle of the assay is based on the Griess (diazotization) reaction which produces a pink azo compound with absorbance at 540 nm.
as §8

IL15 (Interleukin 15) = experiment: In vitro model of induced atopic dermatitis, RT-qPCR: IL15; format: cell-based, human; conditions: NHEK + Poly(I:C), IL4, IL13, 24 h; 0.28 mM DEXA; control NHEK = 1
Description: as §1, §2, §3, §4, §5, §6

[17] = test system: CCL5 (Chemokine (C-C motif) ligand 5); experiment: In vitro model of induced atopic dermatitis, RT-qPCR: CCL5; format: cell-based, human; conditions: NHEK + Poly(I:C), IL4, IL13, 24 h; 0.28 mM DEXA; control NHEK = 1
Description: as §1, §2, §3, §4, §5, §6

C[C@@H]1C[C@H]2[C@@H]3CCC4=CC(=O)C=C[C@]4(C)[C@@]3(F)[C@@H](O)C[C@]2(C)[C@@]1(O)C(=O)CO [dexamethasone]
relative expression (RQ) of IL1B [1]: 2.63 | inhibition at 1 µM [2]: 38% | relative expression (RQ) of DEFB103A [3]: 107.56 | relative expression (RQ) of CCL20 [4]: 28.94 | relative expression (RQ) of TSLP [5]: 1.80 | relative expression (RQ) of S100A7 [6]: 79.12 | relative expression (RQ) of IL8 (IL8 (Interleukin 8)): 7.89 | relative expression (RQ) of IFNB1 [7]: 1.90 | relative expression (RQ) of CX3CL1 (CX3CL1 (Fractalkine)): 36.63 | relative expression (RQ) of CCL27 [8]: 0.71 | relative expression (RQ) of CCL13 [9]: 1.98 | relative expression (RQ) of RNASE7 [10]: 43.23 | relative expression (RQ) of IL1A [11]: 8.54 | relative expression (RQ) of CCL11 [12]: 1.14 | relative expression (RQ) of TLR3 [13]: 2.79 | relative expression (RQ) of IL4R [14]: 7.03 | inhibition at 1 µM [15]: 16% | inhibition at 1 µM [16]: 35% | relative expression (RQ) of IL15 (IL15 (Interleukin 15)): 29.16 | relative expression (RQ) of CCL5 [17]: 49.90

Reference: patent US10954488B2, “Extract of undifferentiated cells of Mimosa pudica and uses thereof in dermo-cosmetics” (PIERRE FABRE DERMO-COSMETIQUE, priority 2016, dated 2021)
